Structures can show the parent of a compound that is named as a salt. Where two headings read alike, the source gives them in different places.
Legend:
Type in all cases: biochemical
recombinant PRL-2 = molecular target: T1, recombinant PRL-2 (Homo sapiens, UniProt Q12974); assay: In vitro phosphatase assay (DiFMUP hydrolysis), PRL-2;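 note: PRL-2 activity read as DiFMUP hydrolysis after 20 min at room temperature with drug, enzyme first pre-reduced at 4 °C for 20 min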
T1 construct: 6xHis (N, cleaved yes); made in house; host or cells: E. coli One Shot BL21 Star
T1 sequence (Q12974 1-167): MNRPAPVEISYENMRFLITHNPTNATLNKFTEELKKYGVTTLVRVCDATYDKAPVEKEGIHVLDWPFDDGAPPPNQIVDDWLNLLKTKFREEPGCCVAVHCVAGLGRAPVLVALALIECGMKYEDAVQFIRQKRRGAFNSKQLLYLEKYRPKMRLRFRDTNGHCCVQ

recombinant PRL-3 = molecular target: T2, recombinant PRL-3 (Homo sapiens, UniProt O75365); assay: In vitro phosphatase assay (DiFMUP hydrolysis), PRL-3; note: test concentration or dose not given here
T2 construct: 6xHis (N, cleaved yes); made in house; host or cells: E. coli One Shot BL21 Star
T2 sequence (O75365 whole entry): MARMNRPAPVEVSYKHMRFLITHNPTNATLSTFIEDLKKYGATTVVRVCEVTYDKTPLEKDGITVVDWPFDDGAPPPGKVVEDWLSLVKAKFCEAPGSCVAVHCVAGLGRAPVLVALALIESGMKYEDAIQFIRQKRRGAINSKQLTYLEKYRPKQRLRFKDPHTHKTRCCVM

recombinant PRL-1 = molecular target: T3, recombinant PRL-1 (Homo sapiens, UniProt Q93096); assay: In vitro phosphatase assay (DiFMUP hydrolysis), PRL-1; note: test concentration or dose not given here
T3 construct: 6xHis (N, cleaved yes); made in house; host or cells: E. coli One Shot BL21 Star
T3 sequence (Q93096 1-173): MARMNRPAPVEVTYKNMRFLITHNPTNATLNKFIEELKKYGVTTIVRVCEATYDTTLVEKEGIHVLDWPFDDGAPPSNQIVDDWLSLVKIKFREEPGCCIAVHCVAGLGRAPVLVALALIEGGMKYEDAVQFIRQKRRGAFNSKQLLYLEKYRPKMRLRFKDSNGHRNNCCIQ

[1] = FDA-approved drug screen, compared to DMSO

SMILES | % Phosphatase Activity (compared to DMSO) PRL-2 (recombinant PRL-2; [1]) [%] | % Phosphatase Activity (compared to DMSO) PRL-3 (recombinant PRL-3; [1]) [%] | % Phosphatase Activity (compared to DMSO) PRL-1 (recombinant PRL-1; [1]) [%] | % Phosphatase Activity (compared to DMSO) PRL-2 (recombinant PRL-2) [%] | % Phosphatase Activity (compared to DMSO) PRL-3 (recombinant PRL-3) [%] | % Phosphatase Activity (compared to DMSO) PRL-1 (recombinant PRL-1) [%]
CCc1c(Cl)c(O)c(Cl)c(O)c1C(=O)O[C@H]1[C@H](O)[C@H](OC)[C@H](OC/C2=C\C=C\C[C@H](O)/C(C)=C/[C@H](CC)[C@@H](O[C@@H]3OC(C)(C)[C@@H](OC(=O)C(C)C)[C@H](O)[C@@H]3O)/C(C)=C/C(C)=C/C[C@@H]([C@@H](C)O)OC2=O)O[C@@H]1C [Fidaxomicin] | 63 | 62 | 85 |  |  | 
O=C(Nc1nc2cccc(-c3ccc(CN4CCS(=O)(=O)CC4)cc3)n2n1)C1CC1 [Filgotinib (GLPG0634)] | 81 | 92 | 102 |  |  | 
CC(C)(C)NC(=O)[C@H]1CC[C@H]2[C@@H]3CC[C@H]4NC(=O)C=C[C@]4(C)[C@H]3CC[C@]12C [Finasteride] | 87 | 81 | 93 |  |  | 
CCCCCCCCc1ccc(CCC(N)(CO)CO)cc1.Cl [Fingolimod (FTY720) HCl] | 95 | 116 | 104 |  |  | 
CN1CC[C@H](c2c(O)cc(O)c3c(=O)cc(-c4ccccc4Cl)oc23)[C@H](O)C1 [Flavopiridol (Alvocidib)] | 82 | 68 | 92 |  |  | 
Cc1c(-c2ccccc2)oc2c(C(=O)OCCN3CCCCC3)cccc2c1=O [Flavoxate HCl] | 109 | 113 | 103 |  |  | 
CS(=O)(=O)c1ccc([C@@H](O)[C@@H](CF)NC(=O)C(Cl)Cl)cc1 [Florfenicol] | 111 | 75 | 100 |  |  | 
O=c1[nH]c(=O)n([C@H]2C[C@H](O)[C@@H](CO)O2)cc1F [Floxuridine] | 100 | 70 | 93 |  |  | 
COC(=O)Nc1nc2cc(C(=O)c3ccc(F)cc3)ccc2[nH]1 [Flubendazole] | 103 | 92 | 91 |  |  | 
Nc1[nH]c(=O)ncc1F [Flucytosine] | 92 | 74 | 99 |  |  | 
Nc1nc(F)nc2c1ncn2[C@@H]1O[C@H](COP(=O)(O)O)[C@@H](O)[C@@H]1O [Fludarabine Phosphate] | 91 | 70 | 97 |  |  | 
Nc1nc(F)nc2c1ncn2[C@@H]1O[C@H](CO)[C@@H](O)[C@@H]1O [Fludarabine] | 119 | 94 | 110 |  |  | 
O=C(O)c1ccccc1Nc1cccc(C(F)(F)F)c1 [Flufenamic acid] | 85 | 69 | 81 |  |  | 
CCOC(=O)c1ncn2c1CN(C)C(=O)c1cc(F)ccc1-2 [Flumazenil] | 102 | 69 | 106 |  |  | 
CC1CCc2cc(F)cc3c(=O)c(C(=O)O)cn1c23 (stereo not drawn) [Flumequine] | 112 | 96 | 122 |  |  | 
Cl.Cl.Fc1ccc(C(c2ccc(F)cc2)N2CCN(C/C=C/c3ccccc3)CC2)cc1 [Flunarizine 2HCl] | 107 | 101 | 111 |  |  | 
CNC[C@H](O)[C@@H](O)[C@H](O)[C@H](O)CO.Cc1c(Nc2ncccc2C(=O)O)cccc1C(F)(F)F [Flunixin Meglumin] | 88 | 80 | 94 |  |  | 
CC1(C)O[C@@H]2C[C@H]3[C@@H]4C[C@H](F)C5=CC(=O)C=C[C@]5(C)[C@@]4(F)[C@@H](O)C[C@]3(C)[C@]2(C(=O)CO)O1 [Fluocinolone Acetonide] | 111 | 82 | 110 |  |  | 

SMILES | % Phosphatase Activity (compared to DMSO) PRL-2 (recombinant PRL-2; [1]) [%] | % Phosphatase Activity (compared to DMSO) PRL-3 (recombinant PRL-3; [1]) [%] | % Phosphatase Activity (compared to DMSO) PRL-1 (recombinant PRL-1; [1]) [%] | % Phosphatase Activity (compared to DMSO) PRL-2 (recombinant PRL-2) [%] | % Phosphatase Activity (compared to DMSO) PRL-3 (recombinant PRL-3) [%] | % Phosphatase Activity (compared to DMSO) PRL-1 (recombinant PRL-1) [%]
CC(=O)OCC(=O)[C@@]12OC(C)(C)O[C@@H]1C[C@H]1[C@@H]3C[C@H](F)C4=CC(=O)C=C[C@]4(C)[C@@]3(F)[C@@H](O)C[C@@]12C [Fluocinonide] | 92 | 89 | 91 |  |  | 
CC(=O)O[C@]1(C(C)=O)CC[C@H]2[C@@H]3C[C@H](C)C4=CC(=O)C=C[C@]4(C)[C@@]3(F)[C@@H](O)C[C@@]21C [Fluorometholone Acetate] | 96 | 79 | 91 |  |  | 
CNCCC(Oc1ccc(C(F)(F)F)cc1)c1ccccc1.Cl (stereo not drawn) [Fluoxetine HCl] | 105 | 68 | 93 |  |  | 
C[C@]1(O)CC[C@H]2[C@@H]3CCC4=CC(=O)CC[C@]4(C)[C@@]3(F)[C@@H](O)C[C@@]21C [Fluoxymesterone] |  |  |  | 102 | 76 | 90
Cl.Cl.OCCN1CCN(CCCN2c3ccccc3Sc3ccc(C(F)(F)F)cc32)CC1 [Fluphenazine (dihydrochloride)] | 101 | 88 | 94 |  |  | 
CC(C(=O)O)c1ccc(-c2ccccc2)c(F)c1 (stereo not drawn) [Flurbiprofen] | 89 | 73 | 97 |  |  | 
CC(C)C(=O)Nc1ccc([N+](=O)[O-])c(C(F)(F)F)c1 [Flutamide] | 76 | 77 | 81 |  |  | 
CCC(=O)O[C@]1(C(=O)SCF)[C@H](C)C[C@H]2[C@@H]3C[C@H](F)C4=CC(=O)C=C[C@]4(C)[C@@]3(F)[C@@H](O)C[C@@]21C [Fluticasone propionate] | 92 | 90 | 103 |  |  | 
CC(C)n1c(/C=C/C(O)CC(O)CC(=O)O)c(-c2ccc(F)cc2)c2ccccc21 (stereo not drawn) [Fluvastatin Sodium] | 95 | 89 | 81 |  |  | 
COCCCC/C(=N\OCCN)c1ccc(C(F)(F)F)cc1 [Fluvoxamine maleate] | 100 | 75 | 88 |  |  | 
Nc1nc(=O)c2nc(CNc3ccc(C(=O)N[C@@H](CCC(=O)O)C(=O)O)cc3)cnc2[nH]1 [Folic acid] | 112 | 92 | 100 |  |  | 
Cc1cn[nH]c1 [Fomepizole] | 102 | 78 | 102 |  |  | 
COc1cc2c(Oc3ccc(NC(=O)C4(C(=O)Nc5ccc(F)cc5)CC4)cc3F)ccnc2cc1OCCCN1CCOCC1 [Foretinib (GSK1363089)] | 105 | 97 | 103 |  |  | 
C[C@]12CCC(=O)C(O)=C1CC[C@@H]1[C@@H]2CC[C@]2(C)C(=O)CC[C@@H]12 [Formestane] |  |  |  | 123 | 85 | 102
COc1ccc(C[C@@H](C)NC[C@H](O)c2ccc(O)c(NC=O)c2)cc1.COc1ccc(C[C@@H](C)NC[C@H](O)c2ccc(O)c(NC=O)c2)cc1.O=C(O)/C=C/C(=O)O [Formoterol Hemifumarate] | 106 | 91 | 95 |  |  | 
CNC[C@H](O)[C@@H](O)[C@H](O)[C@H](O)CO.CNC[C@H](O)[C@@H](O)[C@H](O)[C@H](O)CO.C[C@@H](O[C@H]1OCCN(Cc2nn(P(=O)(O)O)c(=O)[nH]2)[C@H]1c1ccc(F)cc1)c1cc(C(F)(F)F)cc(C(F)(F)F)c1 [Fosaprepitant dimeglumine salt] | 94 | 85 | 87 |  |  | 
O=C(O)P(=O)(O)O [Foscarnet Sodium] | 109 | 91 | 109 |  |  | 
C[C@@H]1O[C@@H]1P(=O)(O)O.NC(CO)(CO)CO [Fosfomycin Tromethamine] | 101 | 92 | 100 |  |  | 
